Laboratory results published in patent US5969017A, “Methods of treating or preventing cardiac arrhythmia” (Merck & Co., Inc., priority 1997, dated 1999).
Where two headings read alike, the source gives them in different places.

Target: T1, IKur in human atrial myocytes (Homo sapiens, UniProt P22460)
T1 construct: Human myocytes were isolated from specimens of right atrial appendage obtained from patients; endogenous in cells; host or cells: human atrial myocytes from right atrial appendage of patients undergoing cardiopulmonary bypass
T1 sequence (P22460 whole entry): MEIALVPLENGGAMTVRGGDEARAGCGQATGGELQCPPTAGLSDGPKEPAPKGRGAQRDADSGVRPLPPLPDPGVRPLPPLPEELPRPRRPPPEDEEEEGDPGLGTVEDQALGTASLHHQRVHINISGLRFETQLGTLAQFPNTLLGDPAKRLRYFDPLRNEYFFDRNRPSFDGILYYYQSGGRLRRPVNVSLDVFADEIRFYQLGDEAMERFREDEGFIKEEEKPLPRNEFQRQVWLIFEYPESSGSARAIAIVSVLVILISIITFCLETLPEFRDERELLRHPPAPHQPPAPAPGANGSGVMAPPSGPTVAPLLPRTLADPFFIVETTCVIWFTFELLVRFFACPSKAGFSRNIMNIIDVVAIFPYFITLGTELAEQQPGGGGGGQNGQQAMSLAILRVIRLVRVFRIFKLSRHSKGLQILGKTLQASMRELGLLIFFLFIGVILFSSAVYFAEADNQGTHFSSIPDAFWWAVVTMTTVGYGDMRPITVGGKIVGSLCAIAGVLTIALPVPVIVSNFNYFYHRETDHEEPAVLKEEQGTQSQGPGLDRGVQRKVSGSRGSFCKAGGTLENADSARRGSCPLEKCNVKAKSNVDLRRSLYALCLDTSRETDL
Experiment: Voltage clamp measurement of IKur block (rested state, use-dependent, rate-dependent) in human atrial myocytes
Format: cell-based
Conditions: for inhibition at 0.03 µM / Rate-Dpdnt Ratio / Use-Dpdnt Ratio / inhibition at 0.1 µM / inhibition at 0.3 µM / inhibition at 1 µM: human atria; for Rate-Dpdnt Ratio: 3 Hz vs 1 Hz, last pulse, <1 = rate-dependent; for Use-Dpdnt Ratio: 10th vs 1st pulse @ 1 Hz, <1 = use-dependent; for selective blockade of IKur (in words): relative to other cardiac K+ channels
Excerpt: B. Measurement of IKur in Human Atrial Myocytes
Isolation of Human Atrial Myocytes:
Human myocytes were isolated from specimens of right atrial appendage obtained from patients undergoing cardiopulmonary bypass, using a modification of the procedure described by Fermini B, Wang Z, Duan D and Nattel S., "Differences in rate dependence of transient outward current in rabbit and human atrium" Am. J. Physiol. […] All tissues were collected in accordance with Temple University School of Medicine Institutional guidelines. […] Tissue samples were quickly immersed in cold (0-4° C.) cardioplegia solution containing (in mM/L): 50 KH2 PO4, 8 MgSO4, 10 NaHCO3, 5 adenosine, 25 taurine, 140 glucose, and 100 mannitol, pH 7.4 and bubbled with 100% O2. […] The tissue was gently agitated by continuous bubbling with 100% O2 for 5 min. […] The supernatant was removed after 40 min and discarded. The chunks were then incubated in a solution of the same ionic composition but supplemented with only collagenase and […]. Microscopic examination of the medium was performed every 10-20 min to determine the number and quality of isolated cells. When the yield appeared maximal, the tissue chunks were suspended in a modified Kraftbruhe solution containing (in mM/L): 25 KCl, 10 KH2 PO4, 25 taurine, 0.5 EGTA, 22 glucose, 55 glutamic acid, and 0.1% bovine albumin, pH 7.3 (22-24° C.) and gently triturated using a large bore Pasteur pipette. The supernatant was collected in a 50 ml centrifuge tube. […] Cells were used within 2-24 hr after isolation.
A small aliquot of the solution containing the isolated human atrial myocytes was placed in a 1-ml chamber mounted on the stage of an inverted microscope. Five minutes were allowed for cell adhesion to the bottom of the chamber. To record IKur, human atrial myocytes were superfused with a solution of the same ionic composition as that used for Kv1.5. An alternative external solution was sometimes used in which NaCl was replaced with NMDG (formal name: N-methyl-d-glucamine) to inhibit INa.
Currents were elicited by 150 ms depolarizing test pulses to +40 mV from a holding potential of -50 mV to inactivate Ito and INa. The amplitude of IKur was measured as the amplitude of the time-dependentcurrent at the end of the test pulse, relative to the holding current level. […] All experiments were performed at room temperature (22-24° C.).
C. Measurement of Use-Dependent and Rate-Dependent Block.
Pulses were applied in 10 second long trains delivered after 30 second rest intervals at frequencies of 1 Hz (10 pulses) or 3 Hz (30 pulses). Percent block of the current is defined as the % decrease in the current amplitude produced by an agent during a given pulse relative to the control current amplitude for that pulse. Rested-state block is the block of the current during the first pulse in a train following the 30 sec rest period. Use-dependent block is block that occurs to a progessively greater extent with each successive depolarization in a train or sequence of pulses or depolarizations delivered at a given rate or frequency. Thus, during a train of 10 depolarizations at frequency of 1 Hz, use-dependent block is assessed as the ratio of the amount of block for the 10th pulse relative to block for the 1st pulse (rested state block) of the train. Rate-dependent block is block that occurs to a greater extent or preferentially at faster rates of depolarization or heart rates. Thus, rate-dependent block is assessed as the ratio of the amount of block of the current during the last pulse of the 10 sec train at 3 Hz vs. 1 Hz. Consequently, ratios of less than one (<1) are indicative of use-dependentand rate-dependent block and the lower the ratio the greater the degree of use and rate dependence.

[1] = 30 nM, 1st pulse @ 1 Hz, +40 mV from -50 mV, read-out: Average % Block, Rested State, 1st pulse
[2] = 30 nM, 10th pulse @ 1 Hz, read-out: Average % Block, Use-Dpdnt, 10th pulse
[3] = 30 nM, 30th pulse @ 3 Hz, read-out: Average % Block, Rate-Dpdnt, 30th pulse
[4] = 100 nM, 1st pulse @ 1 Hz, read-out: Average % Block, Rested State, 1st pulse
[5] = 100 nM, 10th pulse @ 1 Hz, read-out: Average % Block, Use-Dpdnt, 10th pulse
[6] = 100 nM, 30th pulse @ 3 Hz, read-out: Average % Block, Rate-Dpdnt, 30th pulse

## COc1ccc(-n2nc(Sc3ccc(Cl)cc3)c(C)c(C#N)c2=O)cc1 [C, 6-(4-Chlorophenylthio)-2-(4-methoxyphenyl)-5-methyl-3-oxo-2,3-dihydropyridazine-4-carbonitrile]
[1]
  inhibition at 0.03 µM: 35.7%
30 nM
  Rate-Dpdnt Ratio: 1.01
  Use-Dpdnt Ratio: 0.83
[2]
  inhibition at 0.03 µM: 43.2%
[3]
  inhibition at 0.03 µM: 42.9%
[4]
  inhibition at 0.1 µM: 63.8%
100 nM
  Rate-Dpdnt Ratio: 1.13
  Use-Dpdnt Ratio: 0.94
[5]
  inhibition at 0.1 µM: 67.9%
[6]
  inhibition at 0.1 µM: 60.1%
First pulse of 10 at 1 Hz, +40 mV from -50 mV, read-out: Rested State IC50, IKur in Human Atrium
  IC50: 130 nM
Human atrial myocytes
  use-dependent block of IKur (in words): use-dependentblockade
  selective blockade of IKur (in words): selective blockade

## CC1CCC(C(C)C)C(P(=O)(c2ccccc2)c2ccccc2)C1 (stereo not drawn) [A, (2-Isopropyl-5-methylcyclohexyl)diphenylphosphine oxide]
[1]
  inhibition at 0.03 µM: 21.9%
[2]
  inhibition at 0.03 µM: 33%
[3]
  inhibition at 0.03 µM: 48.4%
[4]
  inhibition at 0.1 µM: 35.6%
[5]
  inhibition at 0.1 µM: 59.7%
[6]
  inhibition at 0.1 µM: 75.7%
Human atrial myocytes
  rate-dependent block of IKur (in words): strong rate-dependent profile
  use-dependent block of IKur (in words): use-dependentblockade
Human atrial myocytes, listed as (2-isopropyl-5-methylcyclohexyl)diphenyl-phosphine oxide
  use-dependent block of IKur (in words): strong use-dependent profile

## Cc1cc(C)c(CP(=O)(c2ccccc2)c2ccccc2)c(-c2ccc(F)c(C)c2)c1 [B, 2-(Diphenylphosphinylmethyl)-4'-fluoro-3,5,3'-trimethyl-biphenyl]
[4]
  inhibition at 0.1 µM: 10.4%
100 nM
  Rate-Dpdnt Ratio: 1.53
  Use-Dpdnt Ratio: 0.58
[5]
  inhibition at 0.1 µM: 17.8%
[6]
  inhibition at 0.1 µM: 11.6%
300 nM, 1st pulse @ 1 Hz, read-out: Average % Block, Rested State, 1st pulse
  inhibition at 0.3 µM: 25.8%
300 nM
  Rate-Dpdnt Ratio: 0.93
  Use-Dpdnt Ratio: 0.82
300 nM, 10th pulse @ 1 Hz, read-out: Average % Block, Use-Dpdnt, 10th pulse
  inhibition at 0.3 µM: 31.3%
300 nM, 30th pulse @ 3 Hz, read-out: Average % Block, Rate-Dpdnt, 30th pulse
  inhibition at 0.3 µM: 33.8%
Human atrial myocytes
  use-dependent block of IKur (in words): use-dependentblockade
  selective blockade of IKur (in words): selective blockade

## COc1ccc(-n2nc(Sc3ccc(C)cc3)c(C)c(C#N)c2=O)cc1 [D]
[4]
  inhibition at 0.1 µM: 61%
[5]
  inhibition at 0.1 µM: 68%
100 nM
  Use-Dpdnt Ratio: 0.90
1000 nM, 1st pulse @ 1 Hz, read-out: Average % Block, Rested State, 1st pulse
  inhibition at 1 µM: 81.7%
1000 nM, 10th pulse @ 1 Hz, read-out: Average % Block, Use-Dpdnt, 10th pulse
  inhibition at 1 µM: 80%
1000 nM
  Use-Dpdnt Ratio: 1.02
Human atrial myocytes
  use-dependent block of IKur (in words): use-dependentblockade
  selective blockade of IKur (in words): selective blockade
